Source: US5532240A, “Condensed thiophene compound and pharmaceutical use thereof” (Yoshitomi Pharmaceutical Industries, Ltd., priority 1991, dated 1996)
“Also recorded” adds a separate entry of the source. Like-named read-outs stand apart in the source and are kept apart here.

What was measured:
[1] = system: apomorphine-induced hyperactivity; assay: Anti-apomorphine action (in mouse); type: in vivo, male dd mice; details: oral, 60 min before 0.5 mg/kg s.c. apomorphine hydrochloride, movement lowered by 50%
Method: Anti-apomorphine action (in mouse)
Male dd mice at 3 per group were used for the experiment. The test compound was orally administered to the mice, and 60 minutes later, 0.5 mg/kg of apomorphine hydrochloride was subcutaneously administered. the movement for 20 minutes from immediately after the administration of apomorphine hydrochloride was measured using Valimex (Columbus, USA). Each group was tested four times, and the amount of the test compound necessary to lower the movement by 50% than that of a control group was calculated from a graph and taken as ED50.

[2] = target: T1, serotonin 2 (5-HT2) receptor (Rattus norvegicus, UniProt P14842); assay: Affinity for serotonin 2 receptor (tritiated ketanserin binding); set-up: species or system Wistar rats; details: rat hippocampus crude synaptosomes; [3H]ketanserin 0.2 nM; 37° C., 20 min
T1 construct: A crude synaptosome fraction was separated from hippocampus; from tissue; host or cells: hippocampus of 9-10 week-old Wistar rats, crude synaptosome fraction
T1 sequence (P14842 whole entry): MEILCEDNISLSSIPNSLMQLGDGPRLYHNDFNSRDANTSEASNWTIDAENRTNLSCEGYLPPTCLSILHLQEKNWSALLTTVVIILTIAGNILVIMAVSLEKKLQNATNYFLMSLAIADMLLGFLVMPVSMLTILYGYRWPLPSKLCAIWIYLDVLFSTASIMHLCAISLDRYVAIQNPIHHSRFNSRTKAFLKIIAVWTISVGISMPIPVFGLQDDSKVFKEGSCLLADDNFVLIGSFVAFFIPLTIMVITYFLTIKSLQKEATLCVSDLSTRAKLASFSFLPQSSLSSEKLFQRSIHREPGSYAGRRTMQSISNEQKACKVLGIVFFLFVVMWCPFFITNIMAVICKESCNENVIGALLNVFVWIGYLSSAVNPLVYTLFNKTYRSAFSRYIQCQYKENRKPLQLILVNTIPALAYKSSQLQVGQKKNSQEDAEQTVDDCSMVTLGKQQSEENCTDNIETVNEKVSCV
Method: Affinity for serotonin 2 receptor
A specific binding of serotonin 2 (5-HT2) receptor was tested according to the method described in Mol. Pharmacol. 21, 301 (1981).
A crude synaptosome fraction was separated from hippocampus of 9-10 week-old Wistar rats, and suspended in 50 mM Tris-HCl buffer (pH 7.7) for the experiment. The test compound at several concentration and tritiated ketanserin (final concentration 0.2 nM) were added to the synaptosome suspension, and each mixture was incubated at 37° C. for 20 minutes. After the incubation, the mixture was filtered with suction through Whatman GF/B (trade mark) glass filter. The filter was washed with 50 mM Tris-HCl buffer (pH 7.7), and the radioactivity of the filter was measured by a liquid scintillation counter. Non-specific binding was determined in the presence of 10^-5 M mianserin. The concentration necessary for 50% inhibition (IC50) was determined on a graph, and inhibition constant (Ki value ) was calculated.

dopamine 2 (D2) receptor = target: T2, dopamine 2 (D2) receptor (Rattus norvegicus, UniProt P61169); assay: Affinity for dopamine 2 receptor (tritiated spiperone binding); set-up: species or system Wistar rats; details: rat corpus striatum synaptosomes; [3H]spiperone 0.2 nM; 37° C., 20 min
T2 construct: A synaptosome fraction was separated from corpus striatum; from tissue; host or cells: corpus striatum of 9-10 week-old Wistar rats, synaptosome fraction
T2 sequence (P61169 whole entry): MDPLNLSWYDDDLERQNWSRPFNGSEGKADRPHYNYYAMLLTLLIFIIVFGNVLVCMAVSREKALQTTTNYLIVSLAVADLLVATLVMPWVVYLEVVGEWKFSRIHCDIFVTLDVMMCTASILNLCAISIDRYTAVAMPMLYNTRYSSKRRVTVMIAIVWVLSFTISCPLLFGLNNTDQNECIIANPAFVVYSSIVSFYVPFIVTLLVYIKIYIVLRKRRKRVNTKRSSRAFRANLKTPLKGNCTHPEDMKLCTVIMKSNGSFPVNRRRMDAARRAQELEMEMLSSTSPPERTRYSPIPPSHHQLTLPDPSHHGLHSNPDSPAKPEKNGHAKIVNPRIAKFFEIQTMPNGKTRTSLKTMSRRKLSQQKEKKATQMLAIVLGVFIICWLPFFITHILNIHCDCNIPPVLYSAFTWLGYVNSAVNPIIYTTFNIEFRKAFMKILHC
Method: Affinity for dopamine 2 receptor
A specific binding of dopamine 2 (D2) receptor was tested according to the method described in Eur. J. Pharmacol. 46, 377 (1977).
A synaptosome fraction was separated from corpus striatum of 9-10 week-old Wistar rats, and suspended in 50 mM Tris-HCl buffer (pH 7.1) containing 120 mM sodium chloride, 5 mM potassium chloride, 2 mM calcium chloride, 1 mM magnesium chloride, 10 μM pargyline and 0.1% ascorbic acid for the experiment.
The test compound at several concentrations and tritiated spiperone (final concentration 0.2 nM) were added to the synaptosome suspension, and each mixture was incubated at 37° C. for 20 minutes. After the incubation, the mixture was filtered with suction through Whatman GF/B (trade mark) glass filter. The filter was washed with 50 mM Tris-HCl buffer (pH 7.7), and the radioactivity of the filter was measured by a liquid scintillation counter. Non-specific binding was determined in the presence of 10^-4 M (±)-sulpiride. The concentration necessary for 50% inhibition (IC50) was determined on a graph, and inhibition constant (Ki value) was calculated.

[3] = target: T3, serotonin 1A (5-HT1A) receptor (Rattus norvegicus, UniProt P19327); assay: Affinity for serotonin 1A receptor (tritiated 8-OH-DPAT binding); set-up: species or system Wistar rats; details: rat hippocampus crude synaptosomes; [3H]8-OH-DPAT 0.2 nM; 37° C., 12 min
T3 construct: A crude synaptosome fraction was separated from hippocampus; from tissue; host or cells: hippocampus of 9-10 week-old Wistar rats, crude synaptosome fraction
T3 sequence (P19327 1-422): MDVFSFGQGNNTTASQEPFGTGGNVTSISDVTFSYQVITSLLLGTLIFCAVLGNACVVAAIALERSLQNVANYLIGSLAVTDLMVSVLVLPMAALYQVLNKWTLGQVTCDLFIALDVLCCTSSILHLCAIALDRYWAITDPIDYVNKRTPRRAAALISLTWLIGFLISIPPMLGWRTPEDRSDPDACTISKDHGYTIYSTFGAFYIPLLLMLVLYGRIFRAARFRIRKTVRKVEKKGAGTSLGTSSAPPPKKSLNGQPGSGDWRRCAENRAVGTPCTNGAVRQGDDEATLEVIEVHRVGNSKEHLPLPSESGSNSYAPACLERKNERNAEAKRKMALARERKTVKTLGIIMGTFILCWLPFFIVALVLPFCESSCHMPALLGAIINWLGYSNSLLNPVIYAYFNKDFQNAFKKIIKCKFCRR
Method: Affinity for serotonin 1A receptor
A specific binding of serotonin 1A (5-HT1A) receptor was tested according to the method described in J. Neurochem. 44, 1685 (1985).
A crude synaptosome fraction was separated from hippocampus of 9-10 week-old Wistar rats, and suspended in 50 mM Tris-HCl buffer (pH 7.4) containing 1 mM manganese chloride for the experiment. The test compound at several concentrations and tritiated 8-hydroxy-2-dipropyl-aminotetralin(8-OH-DPAT, final concentration 0.2 nM) were added to the synaptosome suspension, and each mixture was incubated at 37° C. for 12 minutes. After the incubation, the mixture was filtered with suction through Whatman GF/B (trade mark) glass filter. The filter was washed with 50 mM Tris-HCl buffer (pH 7.7), and the radioactivity of the filter was measured by a liquid scintillation counter. Non-specific binding was determined in the presence of 10^-5 M serotonin (5-HT). The concentration necessary for 50% inhibition (IC50) was determined on a graph, and inhibition constant (Ki value) was calculated.

[4] = system: ergometrine-induced head-twitches; assay: Anti-ergometrine action (head-twitch); type: in vivo, male ddY mice; details: Mus musculus; oral, 60 min before 20 mg/kg i.p. ergometrine maleate; head-twitch vanished, Probit
Method: Male ddY mice at 12 per group were used for the experiment. The test compound was orally administered to the mice, and 60 minutes later, 20 mg/kg of ergometrine maleate was intraperitoneally administered. The amount of the test compound necessary to vanish the head-twitch reaction for 10 minutes from immediately after the administration of ergometrine maleate was calculated as ED50 value by Probit method.

D2 = details: cited from earlier work
[5] = system: negative symptoms, EPS, depression and internal secretion in patients; details: cited from earlier work
[6] = system: catalepsy induced by haloperidol; details: preclinical; cited from earlier work

| SMILES | ED50 [1] [mg/kg] | Ki [2] [nM] | Ki (dopamine 2 (D2) receptor) [nM] | Ki [3] [nM] | ED50 [4] [mg/kg] | D2 receptor antagonistic properties (D2) | EPS / side-effects in clinical use [5] | clinical effect on symptoms [5] | EPS / side-effects in clinical use ([5]; listed as risperidone) | effect on catalepsy induced by haloperidol [6] |
| --- | --- | --- | --- | --- | --- | --- | --- | --- | --- | --- |
| O=C1CCCc2sc(CCN3CCC(c4noc5cc(F)ccc45)CC3)cc2N1 [Example 15, 2-(2-(4-(6-fluoro-1,2-benzisoxazol-3-yl)piperidin-1-yl)ethyl)-4,6,7,8-tetrahydro-5H-thieno[3,2-b]azepin-5-one] | 0.063 | 0.32 | 0.065 | 1.6 | 0.089 |  |  |  |  |  |
| Cc1sc2c(c1CCN1CCC(c3noc4cc(F)ccc34)CC1)NC(=O)CCC2 [Example 22, 3-(2-(4-(6-fluoro-1,2-benzoxazolyl-3-yl)piperidin-1-yl)ethyl)-2-methyl-4,6,7,8-tetrahydro-5H-thieno[3,2-b]azepin-5-one] | 1.1 | 0.21 | 0.52 | 15 | 1.5 |  |  |  |  |  |
| CCc1sc2c(c1CCN1CCC(c3noc4cc(F)ccc34)CC1)CCN(C(C)=O)C2 [Example 32, 6-acetyl-2-ethyl-3-(2-(4-(6-fluoro-1,2-benzisoxazol-3-yl)piperidin-1-yl)ethyl)-4,5,6,7-tetrahydrothieno[2,3-c]pyridine] |  | 0.086 | 0.1 | 54 |  |  |  |  |  |  |
| CC(=O)N1CCc2c(sc(CCN3CCC(c4noc5cc(F)ccc45)CC3)c2C)C1 [Example 42, 6-acetyl-2-(2-(4-(6-fluoro-1,2-benzisoxazol-3-yl)piperidin-1-yl)ethyl)-4,5,6,7-tetrahydro-3-methylthieno[2,3-c]pyridine] | 0.2 | 0.2 | 0.23 | 1.1 | 0.19 |  |  |  |  |  |
| CC(=O)N1CCc2cc(C(=O)CCCN3CCC(c4noc5cc(F)ccc45)CC3)sc2C1 [Example 43, 6-acetyl-2-(4-(4-(6-fluoro-1,2-benzisoxazol-3-yl)piperidin-1-yl)butyryl)-4,5,6,7-tetrahydrothieno[2,3-c]pyridine] |  | 0.11 | 1.5 | 87 |  |  |  |  |  |  |
| CC(=O)N1CCc2c(sc(C)c2CCN2CCC(c3csc4cc(F)ccc34)CC2)C1 [Example 53, 6-acetyl-3-(2-(4-(6-fluorobenzo(b)thiophen-3-yl)piperidin-1-yl)ethyl)-4,5,6,7-tetrahydro-2-methylthieno[2,3-c]pyridine] |  | 0.043 | 0.15 | 3.7 |  |  |  |  |  |  |
| CCc1c(CCN2CCC(c3noc4cc(F)ccc34)CC2)sc2c1CCN(C(C)=O)C2 [Example 73, 6-acetyl-2-(2-(4-(6-fluoro-1,2-benzisoxazol-3-yl)piperidin-1-yl)ethyl)-3-ethyl-4,5,6,7-tetrahydrothieno[2,3-c]pyridine] | 0.25 | 0.082 | 0.25 | 0.16 | 0.35 |  |  |  |  |  |
| CCc1c(CCN2CCC(c3csc4cc(F)ccc34)CC2)sc2c1CCN(C(C)=O)C2 [Example 84, 6-acetyl-3-ethyl-2-(2-(4-(6-fluorobenzo-(b)thiophen-3-yl)piperidin-1-yl)ethyl)-4,5,6,7-tetrahydrothieno[2,3-c]pyridine] | 0.73 | 0.18 | 0.21 | 0.13 | 0.95 |  |  |  |  |  |
| CCc1c(CCN2CCC(c3coc4cc(F)ccc34)CC2)sc2c1CCN(C(C)=O)C2 [Example 85, 6-acetate-3-ethyl-2-(2-(4-(6-fluorobenzo(b)furan-3-yl)piperidin-1-yl)ethyl)-4,5,6,7-tetrahydro-thieno[2,3-c]pyridine] | 0.79 | 0.38 | 0.52 | 0.31 | 0.52 |  |  |  |  |  |
| CCc1c(CCN2CCC(c3nsc4cc(F)ccc34)CC2)sc2c1CCN(C(C)=O)C2 [Example 86, 6-acetyl-3-ethyl-2-(2-(4-(6-fluoro-1,2-benzisothiazol-3-yl)piperidin-1-yl)ethyl)-4,5,6,7-tetrahydrothieno[2,3-c]pyridine] | 0.54 | 0.092 | 0.17 | 0.59 | 0.27 |  |  |  |  |  |
| CCc1c(CCN2CCC(c3coc4ccc(C)cc34)CC2)sc2c1CCN(C(C)=O)C2 [Example 145, 6-acetyl-3-ethyl-2-(2-(4-(5-methylbenzo(b)-furan-3-yl)piperidin-1-yl)ethyl)-4,5,6,7-tetrahydrothieno[2,3-c]pyridine] |  | 2.8 | 3.8 | 0.14 |  |  |  |  |  |  |
| O=C1CCCc2sc(CCN3CCC(c4coc5cc(F)ccc45)CC3)cc2N1 [Example 147, 2-(2-(4-(6-fluorobenzo(b)furan-3-yl)piperidin-1-yl)ethyl)-4,6,7,8-tetrahydro-5H-thieno[3,2-b]azepin-5-one] |  | 0.86 | 0.4 | 0.32 |  |  |  |  |  |  |
| Cc1ccc2occ(C3CCN(CCc4cc5c(s4)CCCC(=O)N5)CC3)c2c1 [Example 148, 2-(2-(4-(5-methylbenzo(b)furan-3-yl)piperidin-1-yl)ethyl)-4,6,7,8-tetrahydro-5H-thieno[3,2-b]azepin-5-one] |  | 8.6 | 2.3 | 0.24 |  |  |  |  |  |  |
| Cc1nc2n(c(=O)c1CCN1CCC(c3noc4cc(F)ccc34)CC1)CCCC2 [Risperidone] |  |  |  |  |  | potent | low EPS liability | effective antipsychotic; also recorded: beneficial effects on the negative symptoms of schizophrenia | EPS is appeared in high dose; also recorded: side-effect of internal secretion |  |
| O=C1CC2(CCCC2)CC(=O)N1CCCCN1CCN(c2ncccn2)CC1 [buspirone] |  |  |  |  |  |  |  | improved the depression and EPS caused by haloperidol therapy |  | reverse catalepsy induced by haloperidol |
| Cc1nc2sccn2c(=O)c1CCN1CCC(=C(c2ccc(F)cc2)c2ccc(F)cc2)CC1 [ritanserin] |  |  |  |  |  |  | reduces the incidence of EPS caused by typical antipsychotic drug therapy | ameliorates negative symptoms |  |  |
